{
  "source": "patent US9802962B2",
  "about": "“Tricyclic pyrone compounds reduce amyloid beta aggregates” (priority 2013, dated 2017)",
  "key": {"[1]": {"system": "5×FAD mice", "experiment": "In vivo efficacy in 5×FAD mice", "conditions": "5×FAD mice", "method": "FIGS. 6A-6E. 2-month-old 5×FAD mice were treated with TP70 or vehicle for 6 weeks as described in the text. Four cortical sections evenly distributed through the cerebrum were taken from one hemisphere of each mouse (6 mice in each treatment group) and fluorescently stained with the amyloid dye FSB (blue) and the nuclear dye propidium iodide (PI, red). A: Representative sections that show the PI stain. B: Representative sections that only show the FSB stain. C: Fluorescent staining was objectively quantified by LSC. […] E: A representative Western blot containing the soluble fractions of three mice of each group was analyzed for soluble Aβ dimer (see ref 59 for the method).\nAlthough the mechanism of neuron loss in Alzheimer's disease (AD) remains elusive, it is associated with cerebral accumulation of Aβ42. The 5×FAD mouse model of amyloid deposition expresses five familial AD (FAD) mutations that are additive in driving Aβ42 overproduction."}, "[2]": {"system": "5×FAD mice", "conditions": "reported in Hong, et al., J Neurochem, 2009; cited from earlier work"}, "[3]": {"experiment": "Plasma and brain concentrations after i.v. administration in mice", "assay_type": "in vivo", "method": "FIGS. 3A-3B. FIG. 3A. CP2 and TP70 plasma and brain concentrations following i.v. injection in mice (n=3). FIG. 3B. […] The drug concentration was determined using HPLC and mass spectrometry.\nHPLC/mass spectrometry were employed to quantify CP2 and TP70 in the plasma and brain after i.v. administration in mice. The CP2 concentration was 200-300 μM in the mouse brain between 0.5 and 2 h following 25 mg/kg i.v. administration (FIG. 3A). Similarly, TP70 concentration reached 190 μM in plasma at 5 min and 160 μM in brain at 2 h following 25 mg/Kg i.v. administration (FIGS. 3A and 3B)."}, "[4]": {"system": "MC65 neuroblastoma cells", "experiment": "MC65 protection assay", "assay_type": "cell-based", "conditions": "protection of MC65 cells from death caused by intracellular Aβ; for EC50: read-out: effective concentrations for 50% cell survival (EC50)", "method": "Employing medium-throughput cell-based MC65 protection assay to screen over one hundred TP compounds, seven TP compounds that protect MC65 neuroblastoma cells from death caused by intracellular Aβ have been identified. […] The EC50 values for CP2, TP70, and TP101 are 120, 80, and 70 nM, respectively."}, "[5]": {"system": "ABCA1 cholesterol transporter gene", "experiment": "Increase of ABCA1 cholesterol transporter gene", "assay_type": "cell-based", "from_the_text": "(§1) It has been reported that an induction of cholesterol efflux resulting in a reduction of Aβ formation/deposition in vitro and in vivo (Kim, et al., J Alzheimers Dis, 2009, 16:121-131). For additional Detail, see the attached manuscript entitled, “Inhibition of Acyl-CoA: Cholesterol Acyltransferase (ACAT), Overexpression of Cholesterol Transporter Gene, and Protection of Amyloid β (Aβ) Oligomers-Induced Neuronal Cell Death by Tricylic Pyrone Molecules” which is incorporated herein."}, "[6]": {"experiment": "log P by octanol/water partition", "assay_type": "physicochemical"}, "[7]": {"system": "ACAT", "experiment": "ACAT inhibition", "assay_type": "biochemical", "conditions": "read-out: half maximal inhibitory concentration (IC50), ACAT", "from_the_text": "as §1"}},
  "data": [
    {"smiles": "Cc1cc2c(c(=O)o1)C=C1CC[C@H](C(C)Cn3cnc(N)c4ncnc3-4)C[C@@H]1O2", "note": "(some centres unmarked) [CP2]", "values": [
      {"measurement": "cerebral amyloid load", "setting": "[1]", "result": "substantially reduce"},
      {"measurement": "drug toxicity during the course of treatment", "setting": "[1]", "result": "no apparent drug toxicity"},
      {"measurement": "histopathology, hematological counts, and blood chemistry at necropsy", "setting": "[1]", "result": "No abnormalities"},
      {"measurement": "levels of toxic Aβ dimers", "setting": "[1]", "result": "substantially reduce"},
      {"measurement": "soluble and insoluble Aβ aggregates in vivo", "setting": "[2]", "result": "reduce soluble and insoluble Aβ aggregates in vivo"},
      {"measurement": "CNS penetration", "setting": "[3]; i.v., mice", "result": "good CNS penetration"},
      {"measurement": "brain concentration", "setting": "[3]; mouse brain, between 0.5 and 2 h, 25 mg/kg i.v.", "result": "200 to 300", "unit": "µM"},
      {"measurement": "EC50", "setting": "[4]", "result": 120, "unit": "nM"},
      {"measurement": "EC50", "setting": "[5]", "result": 900, "unit": "nM"},
      {"measurement": "log P", "setting": "[6]", "result": 2.20},
      {"measurement": "IC50", "setting": "[7]", "result": 1200, "unit": "nM"}
    ]},
    {"smiles": "CC(=O)OCCc1cc2c(c(=O)o1)C=C1CC[C@H](C(C)Cn3cnc(N)c4ncnc3-4)C[C@@H]1O2", "note": "(some centres unmarked) [TP4]", "values": [
      {"measurement": "EC50 values (in words)", "setting": "[4]", "result": "nanomolar range"}
    ]},
    {"smiles": "Cc1cc2c(c(=O)o1)C=C1CCC(C(C)CNCc3c[nH]cn3)CC1O2", "note": "(centres unmarked) [TP36]", "values": [
      {"measurement": "EC50 values (in words)", "setting": "[4]", "result": "nanomolar range"}
    ]},
    {"smiles": "Cc1cc2c(c(=O)o1)C=C1CCC(C(C)CNCc3ccc(O)c4ccccc34)CC1O2", "note": "(centres unmarked) [TP54]", "values": [
      {"measurement": "EC50 values (in words)", "setting": "[4]", "result": "nanomolar range"}
    ]},
    {"smiles": "Cc1cc2c(c(=O)o1)C=C1CCC(C(C)CNCc3ccc(CO)cc3)CC1O2", "note": "(centres unmarked) [TP82]", "values": [
      {"measurement": "EC50 values (in words)", "setting": "[4]", "result": "nanomolar range"}
    ]},
    {"smiles": "Cc1cc2c(c(=O)o1)C=C1CCC(C(C)CNCc3ccc(O)c(F)c3)CC1O2", "note": "(centres unmarked) [TP101]", "values": [
      {"measurement": "EC50 values (in words)", "setting": "[4]", "result": "nanomolar range"},
      {"measurement": "EC50", "setting": "[4]", "result": 70, "unit": "nM"}
    ]}
  ]
}
